{"source": "patent US20230190743A1", "about": "“TREATMENT WITH ILEAL BILE ACID TRANSPORTER (IBAT) INHIBITORS FOR INCREASED EVENT-FREE SURVIVAL (EFS)” (Mirum Pharmaceuticals, Inc., priority 2021, published 2023)", "key": {"[1]": {"system": "patients with PFIC due to BSEP deficiency", "assay": "Longitudinal serum bile acid profiling by UHPLC-MS/MS in INDIGO patients", "format": "in vivo, human", "protocol": "Total and individual serum BAs (sBA) including the major sub-species of TCA, TUDCA, TCDCA, TDCA, TLCA, GCA, GUDCA, GCDCA, GDCA, GLCA, CA, UDCA, CDCA, DCA, LCA and 7α-hydroxy-4-cholesten-3-one (sterol-C4), a surrogate marker for BA synthesis, were measured using a validated ultraperformance liquid chromatography coupled with tandem mass spectrometry (UHPLC-MS/MS) assay. The internal standards, a cocktail of deuterium labeled standards were added to serum, calibrators and QC samples. sBA were extracted and separated on a Kinetex C18 (2.6 μm, 100×3.0 mm) column (Phenomenex, Torrance, Calif.) with gradient elution. Quantification of individual sBA was achieved by multiple reaction monitoring (MRM) of selected transitions. Total C24 bile acid concentrations were calculated from the sum of individual species. These assays were applied to the analysis of serum from 19 patients with genetically confirmed PFIC due to BSEP deficiency (open-label phase 2 INDIGO trial; NCT02057718) treated with MRX. Changes in the composition of sBA associated with pruritus improvement measured with the Itch Reported Outcome Observer (ItchRO[Obs]) score were monitored at intervals over 72 weeks, with pruritus responders, defined as >1 scale reduction, compared with nonresponders. Linear mixed model framework was also used to model longitudinal profiles of sBA and pruritus reduction over time."}, "patients with ALGS": {"system": "patients with ALGS", "assay": "Predictors of 6-year EFS and TFS in maralixibat-treated patients from three long-term clinical trials", "format": "in vivo, human", "protocol": "MRX-treated ALGS patients from 3 long-term clinical trials were followed for development of clinically significant events (LTx, surgical biliary diversion [SBD], hepatic decompensation [ascites requiring therapy and variceal bleeding], and death) for up to 6 yrs. TFS (LTx and death only) was also assessed. Those who were on MRX 48 weeks from the first dose and had lab results at 48 weeks were included in this analysis. Variables considered in the model included: liver biochemistries, platelets, pruritus (as assessed by ItchRO(Obs) 0¬4 scale), total serum bile acids (sBA), and age. Goodness of fit was assessed using Harrell's concordance statistic (C-statistic). Cutoffs were determined via a grid search. P-values are from a log-rank test.\nPatients (N=76) with ALGS aged 14-207 months with moderate-to-severe pruritus were included in this analysis. Maralixibat-treated patients with ALGS from three long-term clinical trials (ClinicalTrials.gov ID: NCT02047318; ClinicalTrials.gov ID: NCT02160782; ClinicalTrials.gov ID: NCT02117713) were followed for development of first clinically significant event (LT, surgical biliary diversion, hepatic decompensation [ascites requiring therapy and variceal bleeding], or death) for up to six years. TFS (LT and death only) was also assessed. Patients who were on maralixibat 48 weeks from the first dose and had lab results at 48 weeks were included in this analysis.\nVariables considered in the model included: liver biochemistries, platelets, pruritus (as assessed by Itch-Reported Outcome [Observer] [ItchRO(Obs)] 0-4 scale), total sBA, and age at initiation. These were explored at baseline, week 48, and change from baseline to week 48. Goodness of fit was assessed using Harrell's concordance statistic (C-statistic). Variables with a value ≥0.7 (indicating a good model) were selected for further analysis. Cutoffs for each variable were determined via a grid search across the range of values. Statistical comparisons between the cutoff groups were calculated using a log-rank test."}, "[2]": {"settings": "Week 48 sBA <200 μmol/L, n = 56"}, "[3]": {"settings": "Week 48 sBA ≥200 μmol/L, n = 18"}, "[4]": {"settings": "Week 48 total bilirubin <6.5 mg/dL, n = 52"}, "[5]": {"settings": "Week 48 total bilirubin ≥6.5 mg/dL, n = 24"}, "[6]": {"settings": "age at initiation of maralixibat <36 months, n = 21"}, "[7]": {"settings": "age at initiation of maralixibat ≥36 months, n = 55"}, "[8]": {"settings": "change from baseline to week 48 ItchRO(Obs) >1 pt reduction, n = 46"}, "[9]": {"settings": "change from baseline to week 48 ItchRO(Obs) ≤1 pt reduction, n = 30"}}, "data": [{"smiles": "CCCCC1(CCCC)CS(=O)(=O)c2ccc(N(C)C)cc2[C@@H](c2ccc(OCc3ccc(C[N+]45CCN(CC4)CC5)cc3)cc2)[C@H]1O", "note": "[maralixibat]", "values": [{"measurement": "reduction from baseline in total sBA, pruritus responders vs nonresponders", "setting": "[1]; longitudinal data, p<0.05, result in words", "result": "significantly greater"}, {"measurement": "patients who met the pruritus-response criteria (>1 scale reduction ItchRO[Obs])", "setting": "[1]; of the 19 patients, over 72 weeks", "result": 11, "unit": "patients"}, {"measurement": "proportion of unconjugated BA", "setting": "[1]; pruritus nonresponders, p=0.09", "result": "0.61±0.24", "unit": "%"}, {"measurement": "proportion of unconjugated BA", "setting": "[1]; pruritus responders", "result": "9.84±4.87", "unit": "%"}, {"measurement": "clinical event: LT", "setting": "patients with ALGS; 76 patients", "result": 10, "unit": "n"}, {"measurement": "clinical event: death", "setting": "patients with ALGS; 76 patients", "result": 2, "unit": "n"}, {"measurement": "clinical event: decompensation", "setting": "patients with ALGS; 76 patients", "result": 3, "unit": "n"}, {"measurement": "clinical event: surgical biliary diversion", "setting": "patients with ALGS; 76 patients", "result": 1, "unit": "n"}, {"measurement": "patients who experienced clinical events", "setting": "patients with ALGS; 76 patients, up to six years", "result": "Sixteen"}, {"measurement": "6-year EFS", "setting": "patients with ALGS; [2]", "result": "6-year EFS: 85%"}, {"measurement": "6-year TFS", "setting": "patients with ALGS; [2]", "result": "6-year TFS: 90%"}, {"measurement": "6-year EFS", "setting": "patients with ALGS; [3]", "result": "6-year EFS: 49%"}, {"measurement": "6-year TFS", "setting": "patients with ALGS; [3]", "result": "6-year TFS: 49%"}, {"measurement": "6-year EFS", "setting": "patients with ALGS; [4]", "result": "6-year EFS: 90%"}, {"measurement": "6-year TFS", "setting": "patients with ALGS; [4]", "result": "6-year TFS: 94%"}, {"measurement": "6-year EFS", "setting": "patients with ALGS; [5]", "result": "6-year EFS: 43%"}, {"measurement": "6-year TFS", "setting": "patients with ALGS; [5]", "result": "6-year TFS: 42%"}, {"measurement": "6-year EFS", "setting": "patients with ALGS; [6]", "result": "6-year EFS: 57%"}, {"measurement": "6-year TFS", "setting": "patients with ALGS; [6]", "result": "6-year TFS: 57%"}, {"measurement": "6-year EFS", "setting": "patients with ALGS; [7]", "result": "6-year EFS: 83%"}, {"measurement": "6-year TFS", "setting": "patients with ALGS; [7]", "result": "6-year TFS: 87%"}, {"measurement": "6-year EFS", "setting": "patients with ALGS; [8]", "result": "6-year EFS: 88%"}, {"measurement": "6-year TFS", "setting": "patients with ALGS; [8]", "result": "6-year TFS: 93%"}, {"measurement": "6-year EFS", "setting": "patients with ALGS; [9]", "result": "6-year EFS: 57%"}, {"measurement": "6-year TFS", "setting": "patients with ALGS; [9]", "result": "6-year TFS: 57%"}, {"measurement": "6-year EFS (%)", "setting": "patients with ALGS; number of worse EFS predictor variables: 0", "result": 89, "unit": "%"}, {"measurement": "6-year EFS (%)", "setting": "patients with ALGS; number of worse EFS predictor variables: 1", "result": 89, "unit": "%"}, {"measurement": "6-year EFS (%)", "setting": "patients with ALGS; number of worse EFS predictor variables: 2", "result": 86, "unit": "%"}, {"measurement": "6-year EFS (%)", "setting": "patients with ALGS; number of worse EFS predictor variables: 3", "result": 29, "unit": "%"}, {"measurement": "6-year EFS (%)", "setting": "patients with ALGS; number of worse EFS predictor variables: 4", "result": 33, "unit": "%"}, {"measurement": "rate of 6-year EFS", "setting": "patients with ALGS; patients with ≤2 predictors of worse EFS after 48 weeks of treatment", "result": 88, "unit": "%"}, {"measurement": "rate of 6-year EFS", "setting": "patients with ALGS; patients with ≥3 predictors of worse EFS after 48 weeks of treatment", "result": 31, "unit": "%"}]}]}
